# Species on record: Rattus norvegicus
# Experiment: Open TG-GATES - Regimen: Daily Repeat
# Format: toxicity, organism-based, Sprague-Dawley
# Parameters: regimen Daily Repeat, gender Male, age 6 weeks
# Details: in vivo, po, 100 mg/kg, route gavage, dose level Middle; for APTT / Bas / Eos / Fbg / Hb / Ht / Lym / MCH / MCHC / MCV / Mono / Neu / PT / Plat / RBC / Ret / WBC: tissue Blood; for KIDNEY_L / KIDNEY_R / KIDNEY_TOTAL: tissue Kidney; for LIVER: tissue Liver; for A/G / ALP / ALT / AST / BUN / CRE / Ca / Cl / DBIL / GLC / IP / K / LDH / Na / PL / RALB / TBIL / TC / TG / TP / gamma-GTP: tissue Plasma
compound,measurement,setting,value
C[C@]12CCC(=O)C=C1CC[C@@H]1[C@@H]2CC[C@@]2(C)[C@H]1CC[C@]2(C)O [METHYLTESTOSTERONE],TERMINAL_BW,"72 h, time 3 day",237.7 g
same,APTT,"72 h, time 3 day",15.9 s
same,Bas,"72 h, time 3 day",0%
same,Eos,"72 h, time 3 day",1%
same,Fbg,"72 h, time 3 day",325.4 mg/dL
same,Hb,"72 h, time 3 day",13.7 g/dL
same,Ht,"72 h, time 3 day",40.1%
same,Lym,"72 h, time 3 day",73.6%
same,MCH,"72 h, time 3 day",21.9 pg
same,MCHC,"72 h, time 3 day",34%
same,MCV,"72 h, time 3 day",64.5 fL
same,Mono,"72 h, time 3 day",2.4%
same,Neu,"72 h, time 3 day",22.6%
same,PT,"72 h, time 3 day",13 s
same,Plat,"72 h, time 3 day",107 x10_4/uL
same,RBC,"72 h, time 3 day",623.4 x10_4/ul
same,Ret,"72 h, time 3 day",7%
same,WBC,"72 h, time 3 day",71.4 x10_2/uL
same,KIDNEY_L,"72 h, time 3 day",1.1 g
same,KIDNEY_R,"72 h, time 3 day",1 g
same,KIDNEY_TOTAL,"72 h, time 3 day",2.1 g
same,LIVER,"72 h, time 3 day",11.9 g
same,A/G,"72 h, time 3 day",0.9
same,ALP,"72 h, time 3 day",1787 IU/L
same,ALT,"72 h, time 3 day",41.8 IU/L
same,AST,"72 h, time 3 day",65.2 IU/L
same,BUN,"72 h, time 3 day",14.6 mg/dL
same,CRE,"72 h, time 3 day",0.2 mg/dL
same,Ca,"72 h, time 3 day",11.1 mg/dL
same,Cl,"72 h, time 3 day",107.2 meq/L
same,DBIL,"72 h, time 3 day",0.02 mg/dL
same,GLC,"72 h, time 3 day",180 mg/dL
same,IP,"72 h, time 3 day",8.2 mg/dL
same,K,"72 h, time 3 day",4.1 meq/L
same,LDH,"72 h, time 3 day",77.4 IU/L
same,Na,"72 h, time 3 day",143.4 meq/L
same,PL,"72 h, time 3 day",135 mg/dL
same,RALB,"72 h, time 3 day",2.8 g/dL
same,TBIL,"72 h, time 3 day",0.026 mg/dL
same,TC,"72 h, time 3 day",55 mg/dL
same,TG,"72 h, time 3 day",155.2 mg/dL
same,TP,"72 h, time 3 day",6 g/dL
same,gamma-GTP,"72 h, time 3 day",1 IU/L
same,TERMINAL_BW,"[…], time 7 day",271.1 g
same,TERMINAL_BW,"[…], time 14 day",314.6 g
same,TERMINAL_BW,"[…], time 28 day",402.8 g
same,APTT,"[…], time 7 day",15.7 s
same,Bas,"[…], time 7 day",0%
same,Eos,"[…], time 7 day",1%
same,Fbg,"[…], time 7 day",324.2 mg/dL
same,Hb,"[…], time 7 day",13.9 g/dL
same,Ht,"[…], time 7 day",40.8%
same,Lym,"[…], time 7 day",79%
same,MCH,"[…], time 7 day",21 pg
same,MCHC,"[…], time 7 day",34.1%
same,MCV,"[…], time 7 day",61.4 fL
same,Mono,"[…], time 7 day",2.6%
same,Neu,"[…], time 7 day",16.8%
same,PT,"[…], time 7 day",13.4 s
same,Plat,"[…], time 7 day",116 x10_4/uL
same,RBC,"[…], time 7 day",663.8 x10_4/ul
same,Ret,"[…], time 7 day",5.3%
same,WBC,"[…], time 7 day",72.5 x10_2/uL
same,APTT,"[…], time 14 day",19.7 s
same,Bas,"[…], time 14 day",0.2%
same,Eos,"[…], time 14 day",0.6%
same,Fbg,"[…], time 14 day",304 mg/dL
same,Hb,"[…], time 14 day",14.3 g/dL
same,Ht,"[…], time 14 day",41%
same,Lym,"[…], time 14 day",78.2%
same,MCH,"[…], time 14 day",20.4 pg
same,MCHC,"[…], time 14 day",34.9%
same,MCV,"[…], time 14 day",58.5 fL
same,Mono,"[…], time 14 day",3.2%
same,Neu,"[…], time 14 day",17.2%
same,PT,"[…], time 14 day",13.5 s
same,Plat,"[…], time 14 day",113.1 x10_4/uL
same,RBC,"[…], time 14 day",701.4 x10_4/ul
same,Ret,"[…], time 14 day",3.6%
same,WBC,"[…], time 14 day",101.8 x10_2/uL
same,APTT,"[…], time 28 day",17.5 s
same,Bas,"[…], time 28 day",0%
same,Eos,"[…], time 28 day",1.2%
same,Fbg,"[…], time 28 day",337 mg/dL
same,Hb,"[…], time 28 day",15.6 g/dL
same,Ht,"[…], time 28 day",43.7%
same,Lym,"[…], time 28 day",77%
same,MCH,"[…], time 28 day",19.9 pg
same,MCHC,"[…], time 28 day",35.6%
same,MCV,"[…], time 28 day",55.8 fL
same,Mono,"[…], time 28 day",2.6%
same,Neu,"[…], time 28 day",18.8%
same,PT,"[…], time 28 day",13.6 s
same,Plat,"[…], time 28 day",99.5 x10_4/uL
same,RBC,"[…], time 28 day",783.4 x10_4/ul
same,Ret,"[…], time 28 day",3%
same,WBC,"[…], time 28 day",101.5 x10_2/uL
same,KIDNEY_L,"[…], time 7 day",1.1 g
same,KIDNEY_R,"[…], time 7 day",1.2 g
same,KIDNEY_TOTAL,"[…], time 7 day",2.3 g
same,KIDNEY_L,"[…], time 14 day",1.3 g
same,KIDNEY_R,"[…], time 14 day",1.3 g
same,KIDNEY_TOTAL,"[…], time 14 day",2.6 g
same,KIDNEY_L,"[…], time 28 day",1.6 g
same,KIDNEY_R,"[…], time 28 day",1.5 g
same,KIDNEY_TOTAL,"[…], time 28 day",3.2 g
same,LIVER,"[…], time 7 day",13.1 g
same,LIVER,"[…], time 14 day",15 g
same,LIVER,"[…], time 28 day",17.8 g
same,A/G,"[…], time 7 day",0.9
same,ALP,"[…], time 7 day",2042.4 IU/L
same,ALT,"[…], time 7 day",46.8 IU/L
same,AST,"[…], time 7 day",71.6 IU/L
same,BUN,"[…], time 7 day",16.6 mg/dL
same,CRE,"[…], time 7 day",0.2 mg/dL
same,Ca,"[…], time 7 day",11 mg/dL
same,Cl,"[…], time 7 day",105.4 meq/L
same,DBIL,"[…], time 7 day",0.028 mg/dL
same,GLC,"[…], time 7 day",194.8 mg/dL
same,IP,"[…], time 7 day",8 mg/dL
same,K,"[…], time 7 day",4 meq/L
same,LDH,"[…], time 7 day",100 IU/L
same,Na,"[…], time 7 day",143 meq/L
same,PL,"[…], time 7 day",133.6 mg/dL
same,RALB,"[…], time 7 day",2.7 g/dL
same,TBIL,"[…], time 7 day",0.028 mg/dL
same,TC,"[…], time 7 day",45.8 mg/dL
same,TG,"[…], time 7 day",238.4 mg/dL
same,TP,"[…], time 7 day",5.9 g/dL
same,gamma-GTP,"[…], time 7 day",1.2 IU/L
same,A/G,"[…], time 14 day",0.8
same,ALP,"[…], time 14 day",1318.6 IU/L
same,ALT,"[…], time 14 day",64.2 IU/L
same,AST,"[…], time 14 day",76.2 IU/L
same,BUN,"[…], time 14 day",15 mg/dL
same,CRE,"[…], time 14 day",0.2 mg/dL
same,Ca,"[…], time 14 day",10.6 mg/dL
same,Cl,"[…], time 14 day",105.2 meq/L
same,DBIL,"[…], time 14 day",0.018 mg/dL
same,GLC,"[…], time 14 day",198.8 mg/dL
same,IP,"[…], time 14 day",7.9 mg/dL
same,K,"[…], time 14 day",4.1 meq/L
same,LDH,"[…], time 14 day",118.2 IU/L
same,Na,"[…], time 14 day",141.6 meq/L
same,PL,"[…], time 14 day",137.8 mg/dL
same,RALB,"[…], time 14 day",2.8 g/dL
same,TBIL,"[…], time 14 day",0.026 mg/dL
same,TC,"[…], time 14 day",52.8 mg/dL
same,TG,"[…], time 14 day",157 mg/dL
same,TP,"[…], time 14 day",6.1 g/dL
same,gamma-GTP,"[…], time 14 day",1.2 IU/L
same,A/G,"[…], time 28 day",0.8
same,ALP,"[…], time 28 day",1264.2 IU/L
same,ALT,"[…], time 28 day",43 IU/L
same,AST,"[…], time 28 day",59.8 IU/L
same,BUN,"[…], time 28 day",13.8 mg/dL
same,CRE,"[…], time 28 day",0.2 mg/dL
same,Ca,"[…], time 28 day",11.1 mg/dL
same,Cl,"[…], time 28 day",103 meq/L
same,DBIL,"[…], time 28 day",0.028 mg/dL
same,GLC,"[…], time 28 day",189.2 mg/dL
same,IP,"[…], time 28 day",6.4 mg/dL
same,K,"[…], time 28 day",3.7 meq/L
same,LDH,"[…], time 28 day",99.4 IU/L
same,Na,"[…], time 28 day",143 meq/L
same,PL,"[…], time 28 day",141 mg/dL
same,RALB,"[…], time 28 day",2.8 g/dL
same,TBIL,"[…], time 28 day",0.028 mg/dL
same,TC,"[…], time 28 day",41.2 mg/dL
same,TG,"[…], time 28 day",321.6 mg/dL
same,TP,"[…], time 28 day",6.4 g/dL
same,gamma-GTP,"[…], time 28 day",1 IU/L

# Source: ChEMBL document CHEMBL3885861, “Open TG-GATES”
